Laboratory results published in article PMC6271335, “Anti-Cholinesterase Activity of Lycopodium Alkaloids from Vietnamese Huperzia squarrosa (Forst.) Trevis” (Molecules, 2014).

biological target: AChE (acetylcholinesterase) (Electrophorus electricus, UniProt O42275); assay: Ellman spectrophotometric assay; assay type: biochemical
Sequence (O42275 24-633): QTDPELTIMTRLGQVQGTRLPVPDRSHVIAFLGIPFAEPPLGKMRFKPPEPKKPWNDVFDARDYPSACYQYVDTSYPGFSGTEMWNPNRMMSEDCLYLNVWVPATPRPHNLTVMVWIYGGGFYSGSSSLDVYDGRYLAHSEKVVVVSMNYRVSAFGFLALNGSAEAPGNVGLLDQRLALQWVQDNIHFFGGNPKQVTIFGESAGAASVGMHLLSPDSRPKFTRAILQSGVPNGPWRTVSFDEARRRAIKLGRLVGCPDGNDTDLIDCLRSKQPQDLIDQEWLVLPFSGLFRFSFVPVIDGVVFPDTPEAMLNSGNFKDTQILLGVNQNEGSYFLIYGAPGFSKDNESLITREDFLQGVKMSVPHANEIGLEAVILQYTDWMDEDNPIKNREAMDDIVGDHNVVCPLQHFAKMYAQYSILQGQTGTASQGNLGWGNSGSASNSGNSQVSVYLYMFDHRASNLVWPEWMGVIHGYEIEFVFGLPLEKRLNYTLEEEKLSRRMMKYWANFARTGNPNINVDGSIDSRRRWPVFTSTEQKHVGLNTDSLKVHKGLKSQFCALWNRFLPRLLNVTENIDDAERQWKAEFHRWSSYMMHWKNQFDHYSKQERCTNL

Compound	IC50
COc1ccc2cc3[n+](cc2c1OC)CCc1cc2c(cc1-3)OCO2 [Berberine, reference compound]	0.268 µM
CC(=O)OC1C(C)CC(=O)N2CCCC3=C(CCC2)C1CC3=O (stereo not drawn) [compound 1, lycosquarosine A]	170 µM
acetylaposerratinine [compound 2]	15.2 µg/mL
